According to patent US20250000870A1, “Pharmaceutical Combinations for Treating Cancer” (Cellestia Biotech AG, priority 2021, published 2025):
Where a name gives a salt, the structure may show the parent alone.

Columns and labels:
Type in all cases: cell-based, Human
Details in all cases: Drug 2 in combination with 6-(4-(tert-butyl)phenoxy)pyridin-3-amine (Drug 1), 72 hours
[1] = system: HCC1187 triple negative breast cancer cells; test: alamarBlue combination screening with 6-(4-(tert-butyl)phenoxy)pyridin-3-amine, ZIP synergy analysis
Experimental: (§1) The kinase inhibitors listed in table 1 were used in combination with 6-(4-(tert-butyl) phenoxy)pyridin-3-amine.
(§2) Cells were treated with a combination of 6-(4-(tert-butyl) phenoxy)pyridin-3-amine (concentration range from 150 nM to […]) and chemical compounds listed in table 1 (concentration range from 75 nM to 20 μM) for 72 hours. Concentration range used for each compound was determined based on individual IC50 values i.e concentration range selected flanks IC50 value of each compound. Each of the 8 compounds were combined with 6-(4-(tert-butyl) phenoxy)pyridin-3-amine at different concentrations generating an 8×10 matrix in duplicates, alamarBlue® readout was taken using Infinite® F500 (Tecan) plate reader. All volumes (cells and alamarBlue®) were dispensed using Multidrop Combi dispenser using a standard cassette (Speed MEDIUM).
(§3) Compound management and dispensing: All compounds were prepared as stock solution at 10 mM in pure DMSO. […] To create 384 well working plates, different volumes of stock solutions were plated into 384 well plates by using ECHO 550 acoustic dispenser (Labcyte) to generate the final concentration of interest for each drug, either alone or in matrix combination.
(§4) alamarBlue® viability assay: alamarBlue® proliferation assays were performed to determine the growth kinetics of compound treated cells, alamarBlue® consists of a cell permeable substrate resazurin. In metabolically active and proliferating cells, resazurin is converted to resorufin due to an intrinsic reducing power of live cells and produces a red fluorescence. Therefore, production of resorufin serves as an indicator of the viability of the cell population. Proliferation assays were performed by seeding 1500 cells/well in 384 well plate format. Cells were treated in duplicates with pre-determined concentration of compounds as a single agent or in combination with 6-(4-(tert-butyl) phenoxy)pyridin-3-amine for 72 hours. To determine growth kinetics, alamarBlue® (Invitrogen) was added to each well and incubated for 4 hours, alamarBlue® readout was taken using Infinite® F500 (Tecan) plate reader.
(§5) Data analysis for combination screening: Synergistic interaction analysis was performed using SynergyFinder software as described by Ianevski A, He L, Aittokallio T, Tang J. Bioinformatics. […] To mitigate the impact of edge-effects, correction was applied for all analyses. Regions of interest were defined as concentration combination showing both synergistic interaction and significant absolute activity (>60%).

[2] = system: MCF-7 ER+ breast cancer cells; test: as above
Experimental: as §1, §2, §3, §4, §5

[3] = system: RPMI-8402 leukemic cells; test: as above
Experimental: as §1, §2, §3, §4, §5

[4] = system: HCC1187 triple negative breast cancer cells; test: PrestoBlue combination screening with 6-(4-(tert-butyl)phenoxy)pyridin-3-amine, ZIP synergy analysis
Experimental: (§6) Cell lines and drug combinations: Human T-ALL, AML and breast cancer cell lines RPMI-8402, MV-4-11 and HCC1187 were cultured under mycoplasma free conditions at 37° C. in RPMI-1640 media supplemented with 10% FCS (RPMI-8402 and HCC1187 cells) and IMDM media supplemented with 10% FCS (MV-4-11 cells). The kinase inhibitors listed in table 5 were used in combination with 6-(4-(tert-butyl) phenoxy)pyridin-3-amine.
(§7) 6-(4-(tert-butyl) phenoxy)pyridin-3-amine combination screening: Human cancer cells RPMI-8402, MV-4-11 and HCC1187 were seeded at a density of 10′000 cells/well in 96 well plate format and cultured in 100 μl of growth media. Cells were treated with a combination of 6-(4-(tert-butyl) phenoxy)pyridin-3-amine (concentration range from 30 nM to 100 μM) and chemical compounds listed in table 5 (concentration range from 1 μM to 100 μM) for 72 hours. Concentration range used for each compound was determined based on individual IC50 values i.e concentration range selected flanks IC50 value of each compound. Each of the 2 compounds were combined with 6-(4-(tert-butyl) phenoxy)pyridin-3-amine at different concentrations generating an 6×9 matrix in duplicates. PrestoBlue® readout was taken using Sense (Hidex) plate reader.
(§8) PrestoBlue® viability assay: PrestoBlue® proliferation assays were performed to determine the growth kinetics of compound treated cells. PrestoBlue® consists of a cell permeable substrate resazurin. In metabolically active and proliferating cells, resazurin is converted to resorufin due to an intrinsic reducing power of live cells and produces a red fluorescence. Therefore, production of resorufin serves as an indicator of the viability of the cell population. Proliferation assays were performed by seeding 10′000 cells/well in 96 well plate format. Cells were treated in triplicates (single agent) or duplicates (combinations) with pre-determined concentration of compounds as a single agent or in combination with 6-(4-(tert-butyl) phenoxy)pyridin-3-amine for 72 hours. To determine growth kinetics, PrestoBlue® (Invitrogen) was added to each well and incubated for 4 hours. PrestoBlue® readout was taken using Sense (Hidex) plate reader.
(§9) Data analysis for combination screening: Synergistic interaction analysis was performed using SynergyFinder software as described by Ianevski A, He L, Aittokallio T, Tang J. Bioinformatics. 2017 Aug. 1;33 (15): 2413-2415. doi: 10.1093/bioinformatics/btx162.SynergyFinder: a web application for analyzing drug combination dose-response matrix data). […] Regions of interest were defined as concentration combination showing both synergistic interaction and significant absolute activity (>60%).

[5] = system: MV-4-11 leukemic cells; test: as above
Experimental: as §6, §7, §8, §9

[6] = system: RPMI-8402 leukemic cells; test: as above
Experimental: as §6, §7, §8, §9

Row | Compound | Conclusion [1] | ZIP score [1] | Conclusion [2] | ZIP score [2] | Conclusion [3] | ZIP score [3] | Conclusion [4] | Conclusion [5] | Conclusion [6] | ZIP score [4] | ZIP score [5] | ZIP score [6]
1 | O=C(Nc1c[nH]nc1-c1nc2cc(CN3CCOCC3)ccc2[nH]1)NC1CC1 [AT9283, N-Cyclopropyl-N′-[3-[6-(4-morpholinylmethyl)-1H-benzimidazol-2-yl]-1H-pyrazol-4-yl]-urea] | Synergistic (>0 implies synergistic interaction) | 12.99 | Synergistic (>0 implies synergistic interaction) | 8.38 | Synergistic (>0 implies synergistic interaction) | 12.40 | – | – | – | – | – | –
2 | CC#CC(=O)N1CCC[C@H]1c1nc(-c2ccc(C(=O)Nc3ccccn3)cc2)c2c(N)nccn12 [Acalabrutinib, 4-[8-amino-3-[(2S)-1-(1-oxo-2-butyn-1-yl)-2-pyrrolidinyl]imidazo[1,5-a]pyrazin-1-yl]-N-2-pyridinyl-benzamide] | Synergistic (>0 implies synergistic interaction) | 3.33 | Synergistic (>0 implies synergistic interaction) | 6.86 | Synergistic (>0 implies synergistic interaction) | 0.70 | – | – | – | – | – | –
3 | CNC(=O)c1ccccc1Sc1ccc2c(/C=C/c3ccccn3)n[nH]c2c1 [Axitinib, N-Methyl-2-[[3-[(E)-2-pyridin-2-ylethenyl]-1H-indazol-6-yl]sulfanyl]benzamide] | – | – | – | – | – | – | Synergistic (>0 implies synergistic interaction) | Synergistic (>0 implies synergistic interaction) | Synergistic (>0 implies synergistic interaction) | – | – | –
4 | Cn1c(=O)n(-c2ccc(C(C)(C)C#N)cc2)c2c3cc(-c4cnc5ccccc5c4)ccc3ncc21 [BEZ235, 4-[2,3-dihydro-3-methyl-2-oxo-8-(3-quinolinyl)-1H-imidazo[4,5-c]quinolin-1-yl]-a,a-dimethyl-benzeneacetonitrile] | Synergistic (>0 implies synergistic interaction) | 13.94 | Synergistic (>0 implies synergistic interaction) | 17.40 | Synergistic (>0 implies synergistic interaction) | 7.20 | – | – | – | – | – | –
5 | C[C@@H](Oc1cc(-c2cnn(C3CCNCC3)c2)cnc1N)c1c(Cl)ccc(F)c1Cl [Crizotinib, 3-[(1R)-1-(2,6-dichloro-3-fluorophenyl)ethoxy]-5-[1-(4-piperidinyl)-1H-pyrazol-4-yl]-2-pyridinamine] | No (0 implies no interaction) | 0.10 | – | – | Synergistic (>0 implies synergistic interaction) | 2.38 | – | – | – | – | – | –
6 | CC[C@H](Nc1ncnc2[nH]cnc12)c1nc2cccc(F)c2c(=O)n1-c1ccccc1 [Idelalisib, 5-Fluor-3-phenyl-2-{(1S)-1-[(7H-purin-6-yl)amino]propyl}chinazolin-4 (3H)-on] | – | – | – | – | Synergistic (>0 implies synergistic interaction) | 1.12 | – | – | – | – | – | –
7 | COc1cc2nccc(Oc3ccc(NC(=O)NC4CC4)c(Cl)c3)c2cc1C(N)=O [Lenvatinib, 4-(3-chloro-4-(3-cyclopropylureido)phenoxy)-7-methoxyquinoline-6-carboxamide] | – | – | – | – | – | – | Synergistic (>0 implies synergistic interaction) | Synergistic (>0 implies synergistic interaction) | Synergistic (>0 implies synergistic interaction) | 11.2 | 5.9 | 41.4
8 | NC1(c2ccc(-c3nc4ccn5c(=O)[nH]nc5c4cc3-c3ccccc3)cc2)CCC1 [MK-2206, 8-[4-(1-aminocyclobutyl)phenyl]-9-phenyl-1,2,4-triazolo[3,4-f][1,6]naphthyridin-3 (2H)-one, dihydrochloride] | Synergistic (>0 implies synergistic interaction) | 14.89 | Synergistic (>0 implies synergistic interaction) | 16.97 | Synergistic (>0 implies synergistic interaction) | 8.51 | – | – | – | – | – | –
9 | CO[C@H]1C[C@@H]2CC[C@@H](C)[C@@](O)(O2)C(=O)C(=O)N2CCCC[C@H]2C(=O)O[C@H]([C@H](C)C[C@@H]2CC[C@@H](OC(=O)C(C)(CO)CO)[C@H](OC)C2)CC(=O)[C@H](C)/C=C(\C)[C@@H](O)[C@@H](OC)C(=O)[C@H](C)C[C@H](C)/C=C/C=C/C=C/1C [Temsirolimus, 42-[3-Hydroxy-2-(hydroxymethyl)-2-methylpropanoate]-rapamycin] | Synergistic (>0 implies synergistic interaction) | 23.04 | Synergistic (>0 implies synergistic interaction) | 23.81 | Synergistic (>0 implies synergistic interaction) | 18.03 | – | – | – | – | – | –
10 | CC(C)c1cc(CNc2nc(Nc3cc(C4CC4)[nH]n3)cc(N3CCN(C)CC3)n2)on1 [XL228, N4-(5-cyclopropyl-1H-pyrazol-3-yl)-N2-[[3-(1-methylethyl)-5-isoxazolyl]methyl]-6-(4-methyl-1-piperazinyl)-2,4-pyrimidinediamine] | Synergistic (>0 implies synergistic interaction) | 23.67 | Synergistic (>0 implies synergistic interaction) | 21.86 | Synergistic (>0 implies synergistic interaction) | 15.0 | – | – | – | – | – | –
